US8202995B2, “Pharmaceutically acceptable salts of aporphine derivatives and carboxyl group-containing agents and methods for preparing the same” (Standard Chem. & Pharm. Co., Ltd., priority 2008, dated 2012)

Test system: not listed separately
Assay: Free radical scavenging of 1,1-diphenyl-2-picryl-hydrazyl (DPPH)
Type: biochemical
Settings: DPPH 100 μM, 30 min, absorbance at 517 nm, FIGS. 2-8
Procedure: After 30 min, the absorbance (O.D.) was monitored spectrophotometrically at 517 nm. The activity in inhibiting free radical DPPH results in the decrease of absorbance.

| Compound | activity in free radical scavenging of DPPH in comparison with carboxyl group-containing agent alone and thaliporphine alone |
| --- | --- |
| nateglinide salt of thaliporphine | much higher activity |
| Telmisartan salt of Thaliporphine | much higher activity |
| Captopril salt of Thaliporphine | much higher activity |
| salsalate salt of thaliporphine | much higher activity |
| bezafibrate salt of thaliporphine | much higher activity |
| Atorvastatin salt of Thaliporphine | much higher activity |
| CC(=O)NC(CS)C(=O)O.COc1cc2c(cc1O)CC1c3c(cc(OC)c(OC)c3-2)CCN1C (stereo not shown) [acetylcysteine salt of thaliporphine, Acetylcysteine salt of Thaliporphine] | much higher activity |

Test system: not given
Assay: not given
Settings: HOPE (n=9297), patients with high cardiovascular risk; cited from earlier work

| Compound | reduction of composite outcome (cardiovascular death, myocardial infarction and cerebrovascular accident) [%] |
| --- | --- |
| CCOC(=O)[C@H](CCc1ccccc1)N[C@@H](C)C(=O)N1[C@H](C(=O)O)C[C@@H]2CCC[C@@H]21 [ramipril] | 22 |

Test system: not given
Assay: not given
Settings: PROGRESS (n=6105), individuals with cerebrovascular disease; cited from earlier work

| Compound | reduction of recurrent stroke [%] |
| --- | --- |
| CCC[C@H](N[C@@H](C)C(=O)N1[C@H](C(=O)O)C[C@@H]2CCCC[C@@H]21)C(=O)OCC [perindopril] | 28 |

Test system: vascular smooth muscle cells of rats
Assay: Protecting activity in vascular smooth muscle cells against H2O2 (MTT)
Type: cell-based, rat
Settings: 10 μM compound, 30 minutes before H2O2 200 μM for 24 hours, FIG. 17
Procedure: The vascular smooth muscle cells of rats (2×10^4 cells/mL×1 mL) were quantitatively seeded in 24-well plates, and cultured in Dulbecco's modified Eagle medium (DMEM) with 10% fetal bovine serum (FBS) for 24 hours to achieve cell adhesion. After cell adhesion, the DMEM medium with 10% fetal bovine serum was replaced with a fresh DMEM medium with 0.1% fetal bovine serum to perform cell culture for 48 hours.
Next, each test compound was added in the cultures (final concentration: 0.1, 1, 10 μM). After 30 minutes, H2O2 (200 μM) was added therein to perform reaction for 24 hours in an incubator. Subsequently, in a light-proof environment, MTT (100 μL) was added into each well to perform reaction at 37° C. for 3 hours. The supernatant liquor was removed and then isopropanol (500 μL) was added, followed by shaking for 10 minutes. After standing for 10 minutes, supernatant liquor (200 μL) was transferred into 96-well plates. Finally, the absorbance value (O.D.) was monitored at 540 nm (OD540) and 630 nm (OD630). Based on the measured absorbance values (OD540-OD630), the effect of these test compounds on cell growth can be evaluated, as shown in FIG. 3.

| Compound | inhibition of H2O2-induced damage to vascular smooth muscle cells |
| --- | --- |
| COc1cc2c(cc1OC)-c1c(O)c(OC)cc3c1C(C2)N(CC(=O)Nc1c(C)cccc1C)CC3 (stereo not shown) [Compound 2] | slightly inhibited |
| COc1cc2c(cc1OC)-c1c(O)c(OC)cc3c1C(C2)N(CC(O)COc1ccccc1OC)CC3 (stereo not shown) [Compound 1] | significantly inhibited |

Test system: not listed separately
Assay: Protection from peroxy radical-induced damage, Method A (β-phycoerythrin fluorescence, AAPH)
Type: biochemical
Settings: test compound 5×10^−6 M, AAPH 25 mM, β-phycoerythrin 5 nM, pH 7.4, FIG. 9
From the text: In order to evaluate the effect of test compounds in scavenging hydrophilic peroxy radical, the experiment was executed with reference to the method described by Tsuchiya et al. (Methods Enzymol 1992, 213: 460-472). In the experiment, peroxides will react with fluorescent substances and thus inflect observed fluorescence intensity. Thereby, the effect of test compounds in free radical scavenging can be evaluated by measuring the variation of the fluorescence intensity after the addition of test compounds.
First, to a silicate tube was added a phosphate solution (2 ml, pH 7.4), followed by the addition of β-phycoerythrin (5 nM) to increase relative fluorescence intensity. After 5 minutes, 2,2′-azobis (2-amidinopropane)dihydrochloride (25 mM, AAPH) was added therein. Subsequently, through a fluorescent spectrometry (Shimadzu RF-5301PC, Japan), the fluorescence intensity of β-phycoerythrin was measured by excitation at 540 nm and emission at 570 nm. Then, the test compounds (5×10^−6 M) was further added therein to observe the variation of the fluorescence intensity, in which 0.1% DMSO was taken as a control group.

| Compound | protection of β-phycoerythin from peroxy radical AAPH-induced damage (fluorescence degradation) |
| --- | --- |
| COc1cc2c(cc1OC)-c1c(O)c(OC)cc3c1C(C2)N(CC(=O)Nc1c(C)cccc1C)CC3 (stereo not shown) [Compound 2] | can protect β-phycoerythin |
| COc1cc2c(cc1OC)-c1c(O)c(OC)cc3c1C(C2)N(CC(O)COc1ccccc1OC)CC3 (stereo not shown) [Compound 1] | can protect β-phycoerythin |

Test system: lipid peroxidase, Dunkin Hartley Guinea pig liver microsomes
Assay: Activity in inhibiting lipid peroxidase (malondialdehyde quantitation)
Type: biochemical
Settings: 10 μM, 20 minutes/37° C.
Procedure: The assay was executed with reference to the method described in Biochem Biophys Res Commun. Mar. 28, 1986; 135(3): 1015-21.
• (a) Source: Dunkin Hartley Guinea pig liver microsomes • (b) Substrate: Polyunsaturated fatty acid • (c) Vehicle: 1% DMSO • (d) Pre-Incubation Time/Temp: 15 minutes/37° C. • (e) Incubation Time/Temp: 20 minutes/37° C. • (f) Incubation Buffer: 0.25 M Potassium Phosphate, pH 7.4, 0.1 mM EDTA • (g) Quantitation Method: Spectrophotometric quantitation of Malondialdehyde

| Compound | Inhibition (%) |
| --- | --- |
| COc1cc2c(cc1OC)-c1c(O)c(OC)cc3c1C(C2)N(CC(=O)Nc1c(C)cccc1C)CC3 (stereo not shown) [Compound 2] | 70 |
| COc1cc2c(cc1OC)-c1c(O)c(OC)cc3c1C(C2)N(CC(O)COc1ccccc1OC)CC3 (stereo not shown) [Compound 1] | 64 |

Test system: not listed separately
Assay: Oxygen radical absorbing capacity, Method B (fluorescenin fluorescence decay, AAPH)
Type: biochemical
Settings: test substance 1 μM, 18.75 mM AAPH, 0.06 μM fluorescenin, 37° C., pH 7.4, FIGS. 10-16
Procedure: In order to evaluate the oxygen radical absorbing capacity of test compounds. The automated assay was carried out as described in a previous report by Gillespie and co-workers (Gillespie et al., 2007). The experiment was conducted at 37° C. under pH 7.4 condition with a blank sample in parallel. Briefly, 2, 2′-azobis (2-amidinopropane) dihydrochloride (AAPH) was used as a peroxyl generator. The final reaction mixture for each black microplat in a 96-well microplate assay contained 0.06 μM fluorescenin, 18.75 mM AAPH and appropriate test substance (1 μM) in 75 mM phosphate buffer. Test substance was directly dissolved in DMSO and diluted with 75 mM potassium phosphate buffer (pH 7.4) for analysis. The analyzer was programmed to record the fluorescence of fluorescenin every minute after the addition of AAPH. All fluorescent measurements are expressed relative to the initial reading (excitation at 485 nm and emission at 530 nm) on a FLUOstar Galaxy plate reader (Roche Diagnostic System Inc., Branchburg, N.J.). Raw data were exported from the Fluostar Galaxy software to an Excel (Microsoft, Roselle, Ill.) sheet for further calculations. All the reaction mixtures were prepared in duplicate, and at least three independent assays were performed for each sample. (Gillespie, K M et al., Nature Protocols 2007; 2: 867-870.)

| Compound | activity in free radical scavenging of APPH in comparison with carboxyl group-containing agent alone and aporphine alone |
| --- | --- |
| nateglinide salt of thaliporphine | much higher activity |
| Captopril salt of Thaliporphine | much higher activity |
| salsalate salt of thaliporphine | much higher activity |
| bezafibrate salt of thaliporphine | much higher activity |
| COc1cc2c(cc1OC)-c1c(OC)c(OC)cc3c1C(C2)N(C)CC3.O=C(O)C=Cc1ccc(Cn2ccnc2)cc1 (stereo not shown) [ozagrel salt of glaucine] | much higher activity |
| Atorvastatin salt of Thaliporphine | much higher activity |
| CC(=O)NC(CS)C(=O)O.COc1cc2c(cc1O)CC1c3c(cc(OC)c(OC)c3-2)CCN1C (stereo not shown) [acetylcysteine salt of thaliporphine, Acetylcysteine salt of Thaliporphine] | much higher activity |
